≈ marks a conversion by molar mass, not a printed value. Read-outs that look alike come from different tables or passages of the source. Peptide text beside a SMILES is read from it. * marks the point of attachment. βNA = c1ccc2cc(N*)ccc2c1
Assays:
Type in all cases: cell-based
[1] = test system: Acinetobacter baumannii; assay: MIC assay of individual compounds (microdilution, CLSI/NCCLS)
Procedure: (§1) Mueller-Hinton broth (MH broth) medium, Trypticase Soy Broth (TSB Broth) medium, purchased from BD Difco, Cockeysville, MD, USA; • 96-well plate: Corning Costar, Cambridge, MA, USA; • Test method: the antibacterial activities were tested by the microdilution method according to the CLSI/NCCLS standard.
(§2) (1) Preparation of the test samples: 4 mg of each sample was taken, and was prepared into a test solution at 1,024 μg/mL with MH broth, and the test solution was diluted two-fold in a 96-well plate to prepare solutions of a series of gradient concentrations, the volume in each well being 90 μL.
(§3) (2) Preparation of a bacteria solution: The test strains were amplified by Trypticase Soy Broth (TSB Broth) according to the CLSI/NCCLS standard.
(§4) (3) Addition of the samples: a bacteria solution with a concentration of 6×10^5 cfu/mL was prepared, and 10 μL of the bacteria solution was pipetted into each well of the 96-well plate. Three parallel experiments were set up for each concentration and the results were averaged. To the negative control group, 10 μL of the bacterial solution and 90 μL MH broth were added.
(§5) (4) Incubation: the 96-well plate was placed in a 37° C. constant-temperature incubator for 18 hours, and the growth of the strains was observed. The drug concentration in the well with no microbial growth was recorded as the MIC.

[2] = test system: Pseudomonas aeruginosa; assay: as above
Procedure: as §1, §2, §3, §4, §5

[3] = test system: Acinetobacter baumannii; assay: Combined in vitro use, checkerboard dilution method
Procedure: (§6) Mueller-Hinton broth (MH broth) medium, Trypticase Soy Broth (TSB Broth) medium, purchased from BD Difco, Cockeysville, MD, USA; • 96-well plate: Corning Costar, Cambridge, MA, USA; • Test method: the checkerboard dilution method was used for determination.
(§7) (1) Preparation of the test samples: 4 mg of each sample was taken and was prepared into a test solution at 2,048 μg/mL with MH broth, and the test solution was diluted two-fold in a 96-well plate to prepare solutions of a series of gradient concentrations.
as §3
(§8) (3) Addition of the samples: 10 μL of the bacteria solution with a concentration of 6×10^5 CFU/mL was pipetted into each well of the 96-well plate. Each well contained the antibacterial drugs (the compound of formula (I-1) and the compound of formula (I-2)) diluted two-fold with broth and the aforementioned lactamase inhibitor or efflux pump inhibitor. […] The samples were mixed thoroughly. Three parallel experiments were set up for each concentration and the results were averaged. To the negative control group, 10 μL of the bacterial solution and 90 μL MH broth were added.
(§9) (4) Incubation: the 96-well plate was placed in a 37° C. constant-temperature incubator for 18 hours, and the growth of the strains was observed.
(§10) (5) Calculation: The in vitro effect of each drug-inhibitor combination was analyzed by calculating the FICI value: FICI=(MIC of drug A in the combination/MIC of drug A alone)+ (MIC of drug B in the combination/MIC of drug B alone).
(§11) In order to ensure the reliability of the data, three repeated tests were conducted on different dates and the results were averaged.

[4] = test system: Pseudomonas aeruginosa; assay: as above
Procedure: as §6, §7, §3, §8, §9, §10, §11

[5] = test system: Acinetobacter baumannii or Pseudomonas aeruginosa; assay: MIC assay of individual compounds, summary over non-fermenter strains; conditions: various Acinetobacter baumannii or Pseudomonas aeruginosa strains
Procedure: as §1, §2, §3, §4, §5

[6] = test system: Enterobacter cloacae; assay: MIC assay of individual compounds (microdilution, CLSI/NCCLS)
Procedure: as §1, §2, §3, §4, §5

[7] = test system: Escherichia coli; assay: as above
Procedure: as §1, §2, §3, §4, §5

[8] = test system: Klebsiella pneumoniae; assay: as above
Procedure: as §1, §2, §3, §4, §5

[9] = test system: Escherichia coli; assay: Combined in vitro use, checkerboard dilution method; conditions: compound of formula (I-1) combined with vaborbactam; Escherichia coli CCPM(A)-P-071301
Procedure: as §6, §7, §3, §8, §9, §10, §11

[10] = test system: Klebsiella pneumoniae; assay: as above
Procedure: as §6, §7, §3, §8, §9, §10, §11

[11] = test system: drug-resistant Enterobacteriaceae; assay: MIC assay of individual compounds, summary over Enterobacteriaceae strains; conditions: against the aforementioned Enterobacteriaceae
Procedure: as §1, §2, §3, §4, §5

[12] = test system: drug-resistant Enterobacteriaceae strains; assay: Checkerboard combination, summary over Enterobacteriaceae strains; conditions: combined with avibactam; all of the 4 drug-resistant Enterobacteriaceae strains tested
Procedure: as §6, §7, §3
(3) Addition of the samples: 10 μL of the bacteria solution with a concentration of 6×10^5 CFU/mL was pipetted into each well of the 96-well plate. Each well contained the antibacterial drugs (the compound of formula (I-1) and the compound of formula (I-2)) diluted two-fold with broth and the aforementioned lactamase inhibitor or efflux pump inhibitor. […] The samples were mixed thoroughly. Three parallel experiments were set up for each concentration and the results were averaged. […]
(5) Calculation: The in vitro effect of each drug-inhibitor combination was analyzed by calculating the FICI value: FICI=(MIC of drug A in the combination/MIC of drug A alone)+ (MIC of drug B in the combination/MIC of drug B alone). […]

[13] = ATCC19606, individual compound, Acinetobacter baumannii ATCC 19606, read-out: MIC
[14] = individual compound, Pseudomonas aeruginosa PAO1(CCPM(A)-P-09000032), read-out: MIC
[15] = ATCC17978, individual compound, Acinetobacter baumannii ATCC 17978, read-out: MIC
[16] = ATCC2468, individual compound, Enterobacter cloacae ATCC 2468, read-out: MIC
[17] = ATCC2469, individual compound, Escherichia coli ATCC 2469, read-out: MIC
[18] = individual compound, Escherichia coli CCPM(A)-P-071301, read-out: MIC
[19] = Klebsiella pneumoniae, ATCC2146, individual compound, Klebsiella pneumoniae ATCC 2146, read-out: MIC
[20] = Klebsiella pneumoniae, ATCC700603, individual compound, Klebsiella pneumoniae ATCC 700603, read-out: MIC
[21] = Klebsiella pneumoniae, individual compound, Klebsiella pneumoniae CCPM(A)-0814R18, read-out: MIC
[22] = Klebsiella pneumoniae, individual compound, Klebsiella pneumoniae CCPM(A)-0814R33, read-out: MIC
[23] = Klebsiella pneumoniae, individual compound, Klebsiella pneumoniae CCPM(A)-081301, read-out: MIC
[24] = Klebsiella pneumoniae, individual compound, Klebsiella pneumoniae CCPM(A)-081715, read-out: MIC
[25] = Klebsiella pneumoniae, individual compound, Klebsiella pneumoniae CCPM(A)-081716, read-out: MIC

C[C@H]1[C@H]2CC[C@H]3[C@@H]4CC=C5C[C@@H](N(C)C)CC[C@]5(C)[C@H]4CC[C@]23CN1C [Conessine, conessine]
MIC [1, 13]: > 256 µg/mL
MIC [2, 14]: > 256 µg/mL
MIC in combination ([3]; compound of formula (I-1) combined with conessine, Acinetobacter baumannii ATCC 19606): 4 µg/mL
MIC in combination ([4]; compound of formula (I-1) combined with conessine, Pseudomonas aeruginosa PAO1(CCPM(A)-P-09000032)): >256 µg/mL
activity of the inhibitor itself [5]: relatively weak activities

O=C(O)C[C@@H]1CC[C@H](NC(=O)Cc2cccs2)B(O)O1 [Vaborbactam, vaborbactam]
MIC ([6]; Enterobacter cloacae): > 128 µg/mL
MIC ([6]; Enterobacter cloacae, ATCC2468): > 128 µg/mL
MIC ([7]; Escherichia coli): > 128 µg/mL
MIC ([7]; Escherichia coli, ATCC2469): > 128 µg/mL
MIC ([8]; Klebsiella pneumoniae): > 128 µg/mL
MIC ([8]; Klebsiella pneumoniae, ATCC2146): > 128 µg/mL
MIC ([8]; Klebsiella pneumoniae, ATCC700603): > 128 µg/mL
MIC ([8]; individual compound, Klebsiella pneumoniae CCPM(A)-0814R33): >128 µg/mL
MIC ([8]; individual compound, Klebsiella pneumoniae CCPM(A)-081301): >128 µg/mL
MIC ([8]; individual compound, Klebsiella pneumoniae CCPM(A)-081715): >128 µg/mL
MIC ([8]; individual compound, Klebsiella pneumoniae CCPM(A)-081716): >128 µg/mL
MIC in combination [9]: 0.5 µg/mL
MIC in combination ([10]; compound of formula (I-1) combined with vaborbactam, Klebsiella pneumoniae ATCC 700603): 8 µg/mL
MIC in combination ([10]; compound of formula (I-1) combined with vaborbactam, Klebsiella pneumoniae CCPM(A)-0814R33): 2 µg/mL
activity of the inhibitor itself [11]: relatively weak activities

N=C(N)NCCC[C@H](NC(=O)[C@@H](N)Cc1ccccc1)C(=O)Nc1ccc2ccccc2c1 [PAβN, PaβN] (H-Phe-Arg-βNA)
MIC [1, 15]: > 256 µg/mL
MIC [1, 13]: > 256 µg/mL
MIC ([1]; Acinetobacter baumannii): > 256 µg/mL
MIC ([2]; Pseudomonas aeruginosa): > 256 µg/mL
MIC ([2]; Pseudomonas aeruginosa, ATCC27853): > 256 µg/mL
MIC ([2]; Pseudomonas aeruginosa, PAO1): > 256 µg/mL
MIC in combination ([3]; compound of formula (I-1) combined with PAβN, Acinetobacter baumannii CCPM(A)-P-101633(CRAB)): >0.5 µg/mL
MIC in combination ([4]; compound of formula (I-1) combined with PAβN, Pseudomonas aeruginosa ATCC27853): 64 µg/mL
MIC in combination ([4]; compound of formula (I-1) combined with PAβN, Pseudomonas aeruginosa CCPM(A)-P-091626(CRPA)): 128 µg/mL
MIC in combination ([4]; compound of formula (I-1) combined with PAβN, Pseudomonas aeruginosa PAO1(CCPM(A)-P-09000032)): 64 µg/mL
activity of the inhibitor itself [5]: relatively weak activities

O=C(NC1CCNCC1)[C@@H]1CC[C@@H]2CN1C(=O)N2OS(=O)(=O)O [Relebactam, relebactam]
MIC [6, 16]: 128 µg/mL (≈ 367 µM)
MIC ([6]; individual compound, Enterobacter cloacae CCPM(A)-P-111719, read-out: MIC): 128 µg/mL (≈ 367 µM)
MIC [7, 17]: 64 µg/mL (≈ 184 µM)
MIC [7, 18]: 64 µg/mL (≈ 184 µM)
MIC [8, 19]: 64 µg/mL (≈ 184 µM)
MIC [8, 20]: 64 µg/mL (≈ 184 µM)
MIC [8, 21]: 64 µg/mL (≈ 184 µM)
MIC [8, 22]: 64 µg/mL (≈ 184 µM)
MIC [8, 23]: > 128 µg/mL
MIC [8, 24]: 64 µg/mL (≈ 184 µM)
MIC [8, 25]: 128 µg/mL (≈ 367 µM)
MIC in combination ([10]; compound of formula (I-1) combined with relebactam, Klebsiella pneumoniae ATCC 2146): 0.5 µg/mL
MIC in combination ([10]; compound of formula (I-1) combined with relebactam, Klebsiella pneumoniae ATCC 700603): 8 µg/mL
activity of the inhibitor itself [11]: relatively weak activities

CC1(C)[C@H](NC(=O)/C(=N\OC2(C(=O)O)CCC2)c2csc(N)n2)C(=O)N1OS(=O)(=O)O [Compound of formula (I-2)]
MIC [6, 16]: 2 µg/mL
MIC [7, 17]: 1 µg/mL
MIC [7, 18]: 1 µg/mL
MIC [8, 19]: 2 µg/mL
MIC [8, 20]: 2 µg/mL
MIC [8, 21]: 2 µg/mL
MIC [8, 22]: 2 µg/mL
MIC ([8]; Klebsiella pneumoniae, individual compound, Klebsiella pneumoniae CCPM(A)-0817R61, read-out: MIC): 32 µg/mL
MIC [8, 23]: 2 µg/mL
MIC ([8]; Klebsiella pneumoniae, individual compound, Klebsiella pneumoniae CCPM(A)-081705, read-out: MIC): 2 µg/mL
MIC [8, 24]: 1 µg/mL
MIC [8, 25]: 32 µg/mL
MIC ([8]; Klebsiella pneumoniae, individual compound, Klebsiella pneumoniae CCPM(A)-081729, read-out: MIC): 1 µg/mL
MIC in combination ([10]; compound of formula (I-2) combined with avibactam, Klebsiella pneumoniae ATCC 2146): 0.5 µg/mL
MIC in combination ([10]; compound of formula (I-2) combined with avibactam, Klebsiella pneumoniae ATCC 700603): 0.5 µg/mL
MIC in combination ([10]; compound of formula (I-2) combined with avibactam, Klebsiella pneumoniae CCPM(A)-081715): 0.5 µg/mL
MIC in combination ([10]; compound of formula (I-2) combined with avibactam, Klebsiella pneumoniae CCPM(A)-081729): 0.5 µg/mL
change of MIC values on combination [12]: significantly reduced

COc1ccc2cc3[n+](cc2c1OC)CCc1cc2c(cc1-3)OCO2 [Berberine, berberine]
MIC [1, 15]: > 1020 µg/mL
MIC [1, 13]: > 1020 µg/mL
MIC ([1]; individual compound, Acinetobacter baumannii CCPM(A)-P-101633(CRAB), read-out: MIC): > 1020 µg/mL
MIC ([2]; individual compound, Pseudomonas aeruginosa ATCC27853, read-out: MIC): > 1020 µg/mL
MIC ([2]; individual compound, Pseudomonas aeruginosa CCPM(A)-P-091626(CRPA), read-out: MIC): > 1020 µg/mL
MIC [2, 14]: > 1020 µg/mL
MIC in combination ([3]; compound of formula (I-1) combined with berberine, Acinetobacter baumannii ATCC 19606): 32 µg/mL
MIC in combination ([3]; compound of formula (I-1) combined with berberine, Acinetobacter baumannii CCPM(A)-P-101633(CRAB)): >0.5 µg/mL
activity of the inhibitor itself [5]: relatively weak activities

Reference: patent US20240390335A1, “PHARMACEUTICAL COMPOSITION CONTAINING BETA-LACTAM COMPOUND AND USE THEREOF” (priority 2021, published 2024)
